Laboratory results reported in US11911393B2, “Non-catalytic substrate-selective p38alpha-specific MAPK inhibitors with endothelial-stabilizing and anti-inflammatory activity, and methods of use thereof” (University of Maryland, Baltimore, priority 2016, dated 2024).

Tested on: LPS-induced cytokine expression in PMA-differentiated THP1 cells
Assay: LPS-induced cytokine expression, PCR-based cytokine array
Type: cell-based, human
Conditions: 25 μM SB203580 or 10, 25, or 100 μM UM101

Structure (SMILES): C[S+]([O-])c1ccc(-c2nc(-c3ccncc3)c(-c3ccc(F)cc3)[nH]2)cc1 (stereo not shown) [SB203580, reference compound]
- LPS-stimulated genes of the array (16) whose expression was inhibited, in words: inhibited expression of seven
